Paper PMC6851324, “Design and development of stapled transmembrane peptides that disrupt the activity of G-protein–coupled receptor oligomers” (The Journal of Biological Chemistry, 2019)
Like-named read-outs stand apart in the source and are kept apart here. Where a SMILES comes first, the peptide text is derived from it. Bridges are numbered along the chain shown (N, C = ends). [ ]: non-standard residue; d: D form. S5 = C=CCCC[C@](C)(N)C(=O)O; Nle = CCCC[C@H](N)C(=O)O

How the values were obtained:
[1] = target: T1, trypsin from porcine pancreas (Sus scrofa, UniProt P00761); experiment: Proteolytic stability against trypsin; assay type: in vitro ADME; settings: for half-life at 55.5 μM: pig, isolated enzyme trypsin
T1 construct: purchased Sigma; host or cells: porcine pancreas
T1 sequence (P00761 9-231): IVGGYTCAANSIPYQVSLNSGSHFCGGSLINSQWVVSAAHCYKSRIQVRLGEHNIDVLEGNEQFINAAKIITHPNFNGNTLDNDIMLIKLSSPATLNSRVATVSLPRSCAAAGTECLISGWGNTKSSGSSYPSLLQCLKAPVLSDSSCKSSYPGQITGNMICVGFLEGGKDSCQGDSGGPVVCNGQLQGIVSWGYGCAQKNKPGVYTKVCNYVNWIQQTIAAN
Procedure: (§1) Figure 4. Biophysical analysis of stapled peptides. A, amino acid sequence alignment of the targeted TM regions and disrupting peptides. Cys residues are in the reduced state. Blue bridges indicate the stapled amino acid residues. […] Yields, purity, and MALDI-TOF data are shown for the stapled peptides and negative control. B, CD analysis of 30–50 μM peptides at 20 °C. For proteolytic stability studies, the peptide solution (55.5 μM for trypsin and chymotrypsin and 11.1 μM for serum) was incubated in the presence of 0.55 μg/ml trypsin from porcine pancreas (E), α-chymotrypsin (F), or mouse serum (G) at 37 °C for the indicated times (indicated on the x axis). Data are mean ± S.E. (error bars) (n = 3) percentage of intact peptide normalized to t = 0. Proteolytic half-lives and putative cleavage sites (predicted using the Expasy bioinformatics server's model with a 50% probability of cleavage) are indicated at the bottom of each panel. Positive correlation between helicity and half-life in trypsin/chymotrypsin (C) or serum (D) was determined by two-tailed Pearson's correlation test. TEXT PRINTED IN THE PICTURE: (B) TM7-TAT: Ellipticity (%): 3.4 | (B) TM6-TAT: Ellipticity (%): 18.3 | (B) TM5-TAT: Ellipticity (%): 20.9 | (B) 8: Ellipticity (%): 58.3 | (B) 9: Ellipticity (%): 46.4 | (B) 10: Ellipticity (%): 36.8 | (B) 11: Ellipticity (%): 46 | (E) TM7-TAT: Half-life (min): 21; #Cleavage sites: 8 | (E) TM6-TAT: Half-life (min): 40; #Cleavage sites: 7 | (E) TM5-TAT: Half-life (min): 33; #Cleavage sites: 8 | (E) 8: Half-life (min): 307; #Cleavage sites: 0 | (E) 9: Half-life (min): 178; #Cleavage sites: 0 | (E) 10: Half-life (min): 75; #Cleavage sites: 6 | (E) 11: Half-life (min): 84; #Cleavage sites: 0 | (F) TM7-TAT: Half-life (min): 22; #Cleavage sites: 6 | (F) TM6-TAT: Half-life (min): 32; #Cleavage sites: 7 | (F) TM5-TAT: Half-life (min): 28; #Cleavage sites: 7 | (F) 8: Half-life (min): 425; #Cleavage sites: 4 | (F) 9: Half-life (min): 198; #Cleavage sites: 3 | (F) 10: Half-life (min): 63; #Cleavage sites: 2 | (F) 11: Half-life (min): 79; #Cleavage sites: 4 | (G) TM7-TAT: Half-life (hours): 0.46 | (G) TM6-TAT: Half-life (hours): 0.55 | (G) TM5-TAT: Half-life (hours): 0.81 | (G) 8: Half-life (hours): ≥18 | (G) 9: Half-life (hours): 14.7 | (G) 10: Half-life (hours): 11.7 | (G) 11: Half-life (hours): 5.3 DOUBTS OF THE COPYIST ABOUT THIS PICTURE: Panel A table (Yield, Rt, Purity, [M+H+] calc., [M+H+] Peak Found for 7-11) left out as synthesis and mass-spectrum characterisation data; uncertain whether [M+H+] calc. should count as a molecular weight
(§2) Dose–response curves were fitted using a four-parameter logistic nonlinear regression mode. Peptide stability data were fitted using a nonlinear regression mode for dissociation kinetics. All statistical tests, curve fitting, and graphing were performed using GraphPad Prism 8 (GraphPad Software, La Jolla, CA).
To 100 μl of peptide solution (100 μM, dissolved in ammonium bicarbonate buffer, pH 7.5), 60 μl of ammonium bicarbonate buffer (pH 7.5) was added, together with 20 μl of temperature-equilibrated (37 ± 1 °C) trypsin (5 μg/ml) from porcine pancreas (Sigma, 13,000–20,000 BAEE units/mg of protein). Peptides were incubated for 15, 30, 60, 120, 240, and 480 min, and then MeOH (HPLC Grade) + 0.05% TFA was added. The samples were then centrifuged (15,000 rpm), and the supernatant was analyzed, using Fmoc-Gly (10 μl, 0.2 mM) as an internal standard. The digestion at each time point was repeated three times to give the average values along with S.D. The amount of intact peptide that remained in the mixture was quantified by RP-HPLC. The experiment was repeated twice on different days.

[2] = target: T2, α-chymotrypsin from bovine pancreas (Bos taurus, UniProt P00766, DEL14-15/DEL147-148); experiment: Proteolytic stability against chymotrypsin; assay type: in vitro ADME; settings: for half-life at 55.5 μM: cattle, isolated enzyme chymotrypsin
T2 construct: purchased Sigma Type II; host or cells: bovine pancreas
Procedure: as §1, §2
To 100 μl of peptide solution (100 μM, dissolved in ammonium bicarbonate buffer, pH 7.5), 60 μl of ammonium bicarbonate buffer (pH 7.5) was added, together with 20 μl of temperature-equilibrated (37 ± 1 °C) α-chymotrypsin (5 μg/ml) from bovine pancreas (Sigma, Type II, activity > 40 units/mg protein). Peptides were incubated for 15, 30, 60, 120, 240, and 480 min, and then MeOH (HPLC grade) + 0.05% TFA was added. The samples were then centrifuged (15,000 rpm), and supernatant was analyzed in a similar manner as described above. The experiment was repeated twice on different days.

5-HT2AR–CB1R heteromers = target: T3, 5-HT2AR–CB1R heteromers (Homo sapiens, UniProt P28223); experiment: NanoBiT BiLC peptide screening assay (LgBiT–CB1R + SmBiT–5-HT2AR); assay type: cell-based; settings: HEK293 cells transiently expressing LgBiT–CB1R and SmBiT–5-HT2AR, preincubated 1 h with 4 μM peptide, luminescence normalized to vehicle, n ≥ 5
T3 construct: expressed in transfected cells; host or cells: HEK293 (ATCC CRL-1573), transient reverse transfection
T3 sequence (P28223 2-471, one chain of several): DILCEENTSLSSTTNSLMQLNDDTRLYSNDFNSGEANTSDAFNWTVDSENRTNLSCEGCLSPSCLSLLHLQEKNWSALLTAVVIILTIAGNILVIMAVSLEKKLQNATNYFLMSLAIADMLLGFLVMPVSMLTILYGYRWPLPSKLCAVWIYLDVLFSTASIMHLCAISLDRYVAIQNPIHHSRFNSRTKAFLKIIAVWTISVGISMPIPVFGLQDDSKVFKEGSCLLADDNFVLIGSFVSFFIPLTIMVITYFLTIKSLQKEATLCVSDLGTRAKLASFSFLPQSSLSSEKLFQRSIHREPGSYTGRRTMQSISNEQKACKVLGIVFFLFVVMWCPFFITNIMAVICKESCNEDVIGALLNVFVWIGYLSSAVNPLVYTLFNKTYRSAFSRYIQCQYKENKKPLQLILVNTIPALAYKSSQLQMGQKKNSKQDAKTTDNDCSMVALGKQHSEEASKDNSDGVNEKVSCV
Procedure: Figure 5. Identification of a small-stapled TM peptide disrupting 5-HT2AR–CB1R heteromers. A, schematic representation of the NanoBiT assay using N-terminally labeled constructs. In B, HEK293 cells transiently expressing the LgBT–CB1R and SmBiT–5-HT2AR complementary pairs were preincubated for 1 h at 37 °C with the indicated peptides (4 μM) or vehicle prior to luminescence recording. Data are mean RLU ± S.E. (error bars) (n ≥ 5) percentage of luminescence normalized to vehicle-treated cells. Statistical significance was evaluated by one-way ANOVA followed by Bonferroni post hoc tests, indicating significant differences over vehicle-treated cells (***, p ≤ 0.001; ****, p ≤ 0.0001) and for peptide 10 over its related peptides (####, p ≤ 0.0001). Peptide 10 potency (C) was evaluated as in A over increasing peptide concentrations (bottom) (n = 3). Alternatively, to assess the kinetics of the peptide 10–driven heteromer disruption (D), prior to the administration of the peptide, the cells were preincubated with substrate, and the luminescence was recorded over the following 30 min. Data are mean RLU ± S.E. (n ≥ 3) percentage of luminescence normalized to vehicle-treated cells.
To assess GPCR protein–protein interactions with the NanoBiT technology, HEK293 cells (50,000 cells/well) were seeded in poly-D-lysine–coated white clear bottom 96-well plates and reverse-transfected (see above) with the plasmids encoding the complementary NanoBiT hemiprotein fragments. For orientation screenings, cells were transfected with two different concentrations (50 and 100 ng/well) of each receptor alone or in combination with the investigated partner (see figure legends) in the presence of empty vector (pcDNA3.1(+)) to normalize the total amount of DNA/well. For studies in the presence of increasing nontagged receptor competitors, 100 ng of each receptor pair (CB1R LgBiT + CB1R SmBiT, 5-HT2AR LgBiT + 5-HT2AR SmBiT, and 5-HT2AR LgBiT + CB1R SmBiT) were co-transfected with increasing concentrations of the different nontagged constructs (from 0 to 300 ng/well), and the total amounts of DNA/well were normalized with empty vector (pcDNA3.1(+)). For the screening of stapled peptides, 50 ng/well of both LgBiT CB1R and SmBiT 5-HT2AR were reverse-transfected as detailed previously. 24 h post- transfection, the cell culture medium was removed, and the cells were starved in FBS-free DMEM for 4 h at 37 °C in a 5% CO2 humidified atmosphere. The cell culture medium was replaced by 100 μl of NanoBiT assay buffer (same as for cAMP measurements), and the plates were pre-equilibrated for 1 h at RT in the dark. When peptide pretreatment was required, peptides were added over this pre-equilibration step, except when studying inhibition kinetics, when the peptides were administered immediately after the baseline luminescence recording. 25 μl/well of a 5× solution of the Nano-Glo® live cell reagent containing the cell-permeable furimazine substrate dissolved in Nano-Glo® LCS dilution buffer were added, and the luminescence was immediately monitored in CLARIOstar® Multimode Plate Reader (BMG Labtech) with no lens (1-s integration time/well for 1 h every minute).
as §2

Stability in mouse serum = assay type: in vitro ADME; settings: 11.1 μM peptide, fresh nonsterile mouse serum (200 μl serum + 25 μl peptide solution, pH 7.5 buffer with 10% DMSO), 37 °C, quench 15% TCA in acetonitrile, HPLC, n = 3; read-out: Half-life (hours), mouse serum (converted)
Procedure: as §1, §2
To 200 μl of fresh nonsterile mouse serum was added 25 μl of peptide solution (100 μM, dissolved in ammonium bicarbonate buffer, pH 7.5, containing 10% DMSO), and the mixture was incubated at 37 °C. At the specified time, an aliquot of incubation mixture was withdrawn and quenched by the addition of an equal volume of 15% TCA in acetonitrile to precipitate out serum proteins over ice for 30 min. The mixture was then centrifuged at 13,500 rpm for 10 min, and the supernatant was collected and analyzed by HPLC in a similar manner as described previously. The experiment was repeated twice on different days.

Compound	half-life at 55.5 μM ([1]; pH 7.5, Half-life (min), trypsin) [min]	half-life at 55.5 μM ([2]; pH 7.5) [min]	half-life in chymotrypsin as stated in text ([2]; pH 7.5) [h]	effect on NanoBiT luminescence (heteromer disruption) (5-HT2AR–CB1R heteromers)	half-life at 55.5 μM ([1]; 55.5 μM peptide, 0.55 μg/ml trypsin from porcine pancreas, ammonium bicarbonate buffer pH 7.5, 37 °C, 15–480 min, intact peptide by RP-HPLC (Fmoc-Gly internal standard), n = 3, nonlinear regression fit, read-out: Half-life (min), trypsin) [min]	enhancement in trypsin resistance (half-life) over control peptides ([1]; versus TM7-TAT, TM6-TAT and TM5-TAT control peptides, trypsin 0.55 μg/ml)	half-life at 55.5 μM ([2]; 55.5 μM peptide, 0.55 μg/ml α-chymotrypsin from bovine pancreas, ammonium bicarbonate buffer pH 7.5, 37 °C, 15–480 min, intact peptide by RP-HPLC, n = 3, nonlinear regression fit, read-out: Half-life (min), α-chymotrypsin) [min]	chymotrypsin resistance improvement over full-length TM-TAT peptides ([2]; versus full-length TM7-TAT, TM6-TAT and TM5-TAT) [fold]	half-life at 11.1 μM (Stability in mouse serum) [h]
CCCC[C@@H]1NC(=O)[C@H](Cc2ccc(O)cc2)NC(=O)[C@@](C)(NC(=O)[C@H](Cc2ccc(O)cc2)NC(=O)[C@@H](N)C(C)C)CCC/C=C\CCC[C@@](C)(C(=O)N[C@H](C(=O)N[C@@H](CC(C)C)C(=O)N[C@@H](Cc2c[nH]c3ccccc23)C(N)=O)[C@@H](C)CC)NC1=O [Peptide 9] (H-VY[S5]Y[Nle][S5]ILW-NH2; staple (Z) 3-6)	178	198	5 to 6	neither the version lacking the TAT amino acid sequence, compound 9, nor the nonstaple, compound 11, peptides induced any change	–	–	–	–	–
CCCC[C@@H]1NC(=O)[C@H](Cc2ccc(O)cc2)NC(=O)[C@@](C)(NC(=O)[C@H](Cc2ccc(O)cc2)NC(=O)[C@@H](N)C(C)C)CCCC=CCCC[C@@](C)(C(=O)N[C@@H](CC(C)C)C(=O)N[C@@H](Cc2c[nH]c3ccccc23)C(=O)NCC(=O)N[C@@H](CCCNC(=N)N)C(=O)N[C@@H](CCCCN)C(=O)N[C@@H](CCCCN)C(=O)N[C@@H](CCCNC(=N)N)C(=O)N[C@@H](CCCNC(=N)N)C(=O)N[C@@H](CCC(N)=O)C(=O)N[C@@H](CCCNC(=N)N)C(=O)N[C@@H](CCCNC(=N)N)C(=O)N[C@@H](CCCNC(=N)N)C(N)=O)NC(=O)[C@H](Cc2ccc(O)cc2)NC1=O [Peptide 10] (H-VY[S5]Y[Nle]Y[S5]LWGRKKRRQRRR-NH2; staple 3-7)	–	–	–	–	75	2–3 fold	63	~2	11.7
